These results are taken from patent US20230322722A1, “MODULATORS OF MYC FAMILY PROTO-ONCOGENE PROTEIN” (Nalo Therapeutics, priority 2020, published 2023).

One assay deals with T1, MycN protein (Homo sapiens, UniProt P04198).
T1 construct: either 2×10^6 of L-363 (human leukemia cell line) or SKNBE2 (neuroblastoma cell line) cells; endogenous in cells; host or cells: SKNBE2 / SK-N-BE(2) neuroblastoma cells
T1 sequence (P04198 1-464): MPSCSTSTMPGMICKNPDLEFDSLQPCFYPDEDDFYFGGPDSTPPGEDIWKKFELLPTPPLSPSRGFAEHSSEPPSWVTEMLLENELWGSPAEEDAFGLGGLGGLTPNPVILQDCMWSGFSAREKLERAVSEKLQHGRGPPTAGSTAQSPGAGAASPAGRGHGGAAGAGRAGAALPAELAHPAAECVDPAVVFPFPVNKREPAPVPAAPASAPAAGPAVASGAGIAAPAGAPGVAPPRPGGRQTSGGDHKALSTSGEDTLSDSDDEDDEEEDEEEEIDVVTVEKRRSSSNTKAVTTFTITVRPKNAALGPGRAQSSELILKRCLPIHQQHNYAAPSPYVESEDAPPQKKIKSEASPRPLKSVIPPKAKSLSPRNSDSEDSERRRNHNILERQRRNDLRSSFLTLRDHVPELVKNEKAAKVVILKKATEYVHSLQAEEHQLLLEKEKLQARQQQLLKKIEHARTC
As to the kind of experiment: Degradation of MycN protein, Western blot, SKNBE2 cells (Example 160). Format: cell-based. Put shortly:
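L-363 or SKNBE2 cells (passage <40, mostly <30) at 1×10^6 cells/mL in RPMI 1640/10% FBS were exposed 6 h to compound added from a 1 mM stock. RIPA lysates (25–30 ug protein) were analysed by SDS-PAGE and immunoblot with 1:500 primary antibody, with protein level quantified by band densitometry.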
A general note: In western blotting, separated proteins are transferred to a membrane and probed.

In the next assay the target is T2, MycC protein (Homo sapiens, UniProt P01106).
T2 construct: either 2×10^6 of L-363 (human leukemia cell line) or SKNBE2 (neuroblastoma cell line) cells; endogenous in cells; host or cells: L-363 / L363 human leukemia cells
T2 sequence (P01106 whole entry): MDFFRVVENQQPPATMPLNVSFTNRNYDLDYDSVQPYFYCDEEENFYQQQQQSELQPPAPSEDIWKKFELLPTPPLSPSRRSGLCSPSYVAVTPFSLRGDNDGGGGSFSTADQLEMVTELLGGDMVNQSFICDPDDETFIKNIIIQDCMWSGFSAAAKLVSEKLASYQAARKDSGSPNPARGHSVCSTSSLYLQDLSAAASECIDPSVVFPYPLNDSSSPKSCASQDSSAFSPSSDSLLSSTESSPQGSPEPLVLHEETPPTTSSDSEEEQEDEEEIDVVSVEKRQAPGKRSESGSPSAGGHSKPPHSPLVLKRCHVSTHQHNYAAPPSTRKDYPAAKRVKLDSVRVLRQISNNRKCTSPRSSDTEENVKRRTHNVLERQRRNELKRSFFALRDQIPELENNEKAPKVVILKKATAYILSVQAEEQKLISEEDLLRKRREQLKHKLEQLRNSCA
As to the kind of experiment: Degradation of MycC protein, Western blot, L-363 cells (Example 160). The class given is cell-based. As to conditions: 6 h. The protocol: In a T150 flask was plated either 2×10^6 of L-363 (human leukemia cell line) or SKNBE2 (neuroblastoma cell line) cells in a total of 30 mL containing Roswell Park Memorial Institute (RPMI) 1640 Medium (Thermo Fisher, Cat. #11875-085), 10% Fetal Bovine Serum (FBS, Thermo Fisher: Cat. #10437-028), 1% Penicillin/streptomycin (Thermo Fisher: Cat. #10378016), and 1% Amophotericin B (Thermo Fisher, Cat. #15290026). The cells were split every 72 hours by reseeding the L-363 or SKNBE2 cells, and the passage number was noted. It is noteworthy that cell cultures that were above 40 passages were not used, and most experiments were done with cells of less than 30 passages.
In a 6-well cell culture plate, a total of 3 mL of either 1×10^6 cells/mL of L-363 or SKNBE2 cells were seeded, resulting in a total of 3×10^6 cells per well. To each well containing 3 mL of either L-363 or SKNBE2 cell line was added 6 uL of MycN modulating compound (1 mM) and the resulting plate was shaken from left to right, and not swirled. After 6 hours, the cells were placed in a 15 mL falcon tube and spun at 500 Gs at 4° C. in a swinging bucket centrifuge. The medium was then carefully removed without disturbing the pellet. The pellet was then washed with 3 mLs of chilled phosphate buffered saline (PBS) and subjected to the spin cycle. PBS was then removed and the pellet was lysed in 200 uL of radioimmunoprecipitation (RIPA) lysis buffer (Thermo Fisher: Cat. #899000) that is supplemented with protease and phosphatase inhibitors (Thermo Fisher: Cat. #A32959). The cell lysate was then subjected to spinning in a centrifuge for 10 minutes at 13000 G at 4° C. The supernatant was then carefully transferred to a fresh eppendorf tube without disturbing the pellet (˜180 uL). The protein concentration of the cell lysate was then determined by using a bicinchoninic acid (BCA assay) according to manufacturer's protocol (Thermo Fisher: Cat. #23227).
Cell lysate, approximately 25 ug-30 ug, was loaded per well in a 4-20% polyacrylamide gel (Biorad. Cat. #5671094). After running the dye front off of the gel, the gel was transferred to a nitrocellulose membrane (Biorad: Cat. #1704159) using the transblot turbo system (Biorad: Cat. #1704150) according to manufacturer's protocol. After transferring for 30 minutes, the membrane was blocked with 5% BSA for 1 hour at room temperature. The BSA was then washed off and the primary antibody of choice (1:500) was added, and the membrane was incubated with the primary antibody at 4° C. for overnight. The next morning, the primary antibody was removed and the membrane was washed with 1×-TBST for 10 minutes and repeated three more times. Following the last wash, a secondary antibody (Molecular Devices. Cat. #R8209 or R8208) was added at 1:5000 dilution and incubated for 1 hour at room temperature. Following the incubation with the secondary antibody, the membrane was washed with 1×-TBST for 10 minutes and repeated three more times. Following the last wash, the membrane was washed with de-ionized water twice and dried for at least two hours. Once the membrane is completely dry, the Molecular Devices Spectra Max western system was used to observe the bands. The western image was saved and the band density was measured with ImageJ software.

The term inhibition denotes the share of the control response that was lost under treatment. `Cn1ncc2cc(C(=O)N[C@H]3CC[C@H](N(C)c4nccc(Nc5cc(C6CC6)[nH]n5)n4)CC3)ccc21` [Compound 118, N-((1R,4R)-4-((4-((5-cyclopropyl-1H-pyrazol-3-yl)amino)pyrimidin-2-yl)(methyl)amino)cyclohexyl)-1-methyl-1H-indazole-5-carboxamide]: the inhibition at 2 µM lay within 50 to 79% at MycN protein (SKNBE2, 6 h) and 80 to 100% on MycC protein.
Turning to `CN(c1nccc(Nc2cc(C3CC3)[nH]n2)n1)[C@H]1CC[C@H](C(=O)NC2Cc3ccccc3C2)CC1` [Compound 119, (1R,4R)-4-((4-((5-cyclopropyl-1H-pyrazol-3-yl)amino)pyrimidin-2-yl)(methyl)amino)-N-(2,3-dihydro-1H-inden-2-yl)cyclohexane-1-carboxamide], the inhibition at 2 µM against MycN protein (6 h) and on MycC protein was 80 to 100% in each case.
For `CN(c1nccc(Nc2cc(C3CC3)[nH]n2)n1)[C@H]1CC[C@H](C(=O)NCC2Cc3ccccc3C2)CC1` [Compound 120, (1R,4R)-4-((4-((5-cyclopropyl-1H-pyrazol-3-yl)amino)pyrimidin-2-yl)(methyl)amino)-N-((2,3-dihydro-1H-inden-2-yl)methyl)cyclohexane-1-carboxamide], the inhibition at 2 µM lay within 50 to 79% against MycN protein (SKNBE2, 6 h) and 80 to 100% against MycC protein.
Turning to `CN(c1nccc(Nc2cc(C3CC3)[nH]n2)n1)C1CCC(CC(=O)NC2Cc3ccccc3C2)CC1` (centres unmarked) [Compound 121, 2-(4-((4-((5-cyclopropyl-1H-pyrazol-3-yl)amino)pyrimidin-2-yl)(methyl)amino)cyclohexyl)-N-(2,3-dihydro-1H-inden-2-yl)acetamide], the inhibition at 2 µM against MycN protein (6 h) and against MycC protein was 80 to 100% in each case.
`Cn1nnc(C(=O)N[C@H]2CC[C@H](N(C)c3nccc(Nc4cc(C5CC5)[nH]n4)n3)CC2)n1` [Compound 122, N-((1R,4R)-4-((4-((5-cyclopropyl-1H-pyrazol-3-yl)amino)pyrimidin-2-yl)(methyl)amino)cyclohexyl)-2-methyl-2H-tetrazole-5-carboxamide]: the inhibition at 2 µM against MycN protein (SKNBE2, 6 h) was in the range of 50 to 79%; against MycC protein it was 80 to 100%.
On to `CN(c1nccc(Nc2cc(C3CC3)[nH]n2)n1)[C@H]1CC[C@H](NC(=O)Cc2ccnc(C(F)(F)F)c2)CC1` [Compound 123, N-((1R,4R)-4-((4-((5-cyclopropyl-1H-pyrazol-3-yl)amino)pyrimidin-2-yl)(methyl)amino)cyclohexyl)-2-(2-(trifluoromethyl)pyridin-4-yl)acetamide], for which the inhibition at 2 µM against MycN protein (SKNBE2, 6 h) was in the range of 20 to 49%; at MycC protein it was 20 to 49%.
Regarding `CN(c1nccc(Nc2cc(C3CC3)[nH]n2)n1)[C@H]1CC[C@H](NC(=O)Cc2ccnc(C#N)c2)CC1` [Compound 124, 2-(2-cyanopyridin-4-yl)-N-((1R,4R)-4-((4-((5-cyclopropyl-1H-pyrazol-3-yl)amino)pyrimidin-2-yl)(methyl)amino)cyclohexyl)acetamide], the inhibition at 2 µM against MycN protein (SKNBE2, 6 h) lay in the range of 50 to 79%; at MycC protein, 80 to 100%.
The corresponding values for `CN(c1nccc(Nc2cc(C3CC3)[nH]n2)n1)[C@H]1CC[C@H](NC(=O)Cc2cccc(C#N)n2)CC1` [Compound 125, 2-(6-cyanopyridin-2-yl)-N-((1R,4R)-4-((4-((5-cyclopropyl-1H-pyrazol-3-yl)amino)pyrimidin-2-yl)(methyl)amino)cyclohexyl)acetamide] are 80 to 100% and 80 to 100%.
Take `COc1ccc(C#N)cc1CC(=O)N[C@H]1CC[C@H](N(C)c2nccc(Nc3cc(C4CC4)[nH]n3)n2)CC1` [Compound 126, 2-(5-cyano-2-methoxyphenyl)-N-((1R,4R)-4-((4-((5-cyclopropyl-1H-pyrazol-3-yl)amino)pyrimidin-2-yl)(methyl)amino)cyclohexyl)acetamide]: the inhibition at 2 µM at MycN protein (SKNBE2, 6 h) was less than 20%; on MycC protein, 80 to 100%.
The corresponding values for `CN(c1nccc(Nc2cc(C3CC3)[nH]n2)n1)[C@H]1CC[C@H](C(=O)NCc2cccc(C(F)(F)F)c2)CC1` [Compound 127, (1R,4R)-4-((4-((5-cyclopropyl-1H-pyrazol-3-yl)amino)pyrimidin-2-yl)(methyl)amino)-N-(3-(trifluoromethyl)benzyl)cyclohexane-1-carboxamide] are 80 to 100% and 80 to 100%.
In the same order, the values of `CN(c1nccc(Nc2cn(C3CCCC3)cn2)n1)[C@H]1CC[C@H](NC(=O)C2Cc3ccccc3C2)CC1` [Compound 130, N-((1R,4R)-4-((4-((1-cyclopentyl-1H-imidazol-4-yl)amino)pyrimidin-2-yl)(methyl)amino)cyclohexyl)-2,3-dihydro-1H-indene-2-carboxamide] are less than 20% and 50 to 79%.
In the same order, the values of `CN(c1nccc(Oc2cc(C3CCCC3)[nH]n2)n1)C1CCC(NC(=O)Cc2cccc(C(F)(F)F)c2)CC1` [Compound 131, N-((1R,4R)-4-((4-((5-cyclopentyl-1H-pyrazol-3-yl)oxy)pyrimidin-2-yl)(methyl)amino)cyclohexyl)-2-(3-(trifluoromethyl)phenyl)acetamide] are 20 to 49% and less than 20%.
With `CN(c1nccc(Nc2cc(C3CC3)[nH]n2)n1)[C@H]1CC[C@H](NC(=O)c2cccc(S(C)(=O)=O)c2)CC1` [Compound 132, N-((1R,4R)-4-((4-((5-cyclopropyl-1H-pyrazol-3-yl)amino)pyrimidin-2-yl)(methyl)amino)cyclohexyl)-3-(methylsulfonyl)benzamide], the inhibition at 2 µM at MycN protein (SKNBE2, 6 h) fell in the range of 80 to 100%; against MycC protein, 80 to 100%.
Consider `CN(c1nccc(Nc2cc(C3CC3)[nH]n2)n1)C1CCC(CC(=O)Nc2cn(C3COC3)cn2)CC1` [Compound 133, 2-((1R,4R)-4-((4-((5-cyclopropyl-1H-pyrazol-3-yl)amino)pyrimidin-2-yl)(methyl)amino)cyclohexyl)-N-(1-(oxetan-3-yl)-1H-imidazol-4-yl)acetamide], for which the inhibition at 2 µM against MycN protein (SKNBE2, 6 h) was in the range of 80 to 100%; at MycC protein, 80 to 100%.
As to `CN(c1nccc(Nc2cc(C3CC3)[nH]n2)n1)C1CCC(CC(=O)NC2Cc3cc(F)c(F)cc3C2)CC1` (centres unmarked) [Compound 134, 2-(4-((4-((5-cyclopropyl-1H-pyrazol-3-yl)amino)pyrimidin-2-yl)(methyl)amino)cyclohexyl)-N-(5,6-difluoro-2,3-dihydro-1H-inden-2-yl)acetamide], the inhibition at 2 µM is 20 to 49% against MycN protein (6 h) and 80 to 100% at MycC protein.
In the case of `CN(c1nccc(Nc2cc(C3CC3)[nH]n2)n1)[C@H]1CC[C@H](NC(=O)c2ccc(S(C)(=O)=O)cn2)CC1` [Compound 135, N-((1R,4R)-4-((4-((5-cyclopropyl-1H-pyrazol-3-yl)amino)pyrimidin-2-yl)(methyl)amino)cyclohexyl)-5-(methylsulfonyl)picolinamide], the inhibition at 2 µM is less than 20% on MycN protein (SKNBE2, 6 h) and 80 to 100% on MycC protein.
